Results: ChEMBL document CHEMBL2034857, “Discovery of the macrocycle (9E)-15-(2-(pyrrolidin-1-yl)ethoxy)-7,12,25-trioxa-19,21,24-triaza-tetracyclo[18.3.1.1(2,5).1(14,18)]hexacosa-1(24),2,4,9,14(26),15,17,20,22-nonaene (SB1578), a potent inhibitor of janus kinase 2/fms-like tyrosine kinase-3 (JAK2/FLT3) for the treatment of rheumatoid …” (J Med Chem, 2012)
pIC50: −log10 of the molar value.

Legend:
[1] = molecular target: Tyrosine-protein kinase JAK2 (Homo sapiens, UniProt O60674); assay: Inhibition of recombinant JAK2 using poly(Glu,Ala,Tyr) as substrate after 2 hrs by luminometric assay
[2] = molecular target: Non-receptor tyrosine-protein kinase TYK2 (Homo sapiens, UniProt P29597); assay: Inhibition of TYK2
[3] = molecular target: T1, Receptor-type tyrosine-protein kinase FLT3 (Homo sapiens, UniProt P36888); assay: Inhibition of recombinant FLT3 using poly(Glu,Tyr) as substrate after 2 hrs by luminometric assay
T1 sequence (P36888 whole entry): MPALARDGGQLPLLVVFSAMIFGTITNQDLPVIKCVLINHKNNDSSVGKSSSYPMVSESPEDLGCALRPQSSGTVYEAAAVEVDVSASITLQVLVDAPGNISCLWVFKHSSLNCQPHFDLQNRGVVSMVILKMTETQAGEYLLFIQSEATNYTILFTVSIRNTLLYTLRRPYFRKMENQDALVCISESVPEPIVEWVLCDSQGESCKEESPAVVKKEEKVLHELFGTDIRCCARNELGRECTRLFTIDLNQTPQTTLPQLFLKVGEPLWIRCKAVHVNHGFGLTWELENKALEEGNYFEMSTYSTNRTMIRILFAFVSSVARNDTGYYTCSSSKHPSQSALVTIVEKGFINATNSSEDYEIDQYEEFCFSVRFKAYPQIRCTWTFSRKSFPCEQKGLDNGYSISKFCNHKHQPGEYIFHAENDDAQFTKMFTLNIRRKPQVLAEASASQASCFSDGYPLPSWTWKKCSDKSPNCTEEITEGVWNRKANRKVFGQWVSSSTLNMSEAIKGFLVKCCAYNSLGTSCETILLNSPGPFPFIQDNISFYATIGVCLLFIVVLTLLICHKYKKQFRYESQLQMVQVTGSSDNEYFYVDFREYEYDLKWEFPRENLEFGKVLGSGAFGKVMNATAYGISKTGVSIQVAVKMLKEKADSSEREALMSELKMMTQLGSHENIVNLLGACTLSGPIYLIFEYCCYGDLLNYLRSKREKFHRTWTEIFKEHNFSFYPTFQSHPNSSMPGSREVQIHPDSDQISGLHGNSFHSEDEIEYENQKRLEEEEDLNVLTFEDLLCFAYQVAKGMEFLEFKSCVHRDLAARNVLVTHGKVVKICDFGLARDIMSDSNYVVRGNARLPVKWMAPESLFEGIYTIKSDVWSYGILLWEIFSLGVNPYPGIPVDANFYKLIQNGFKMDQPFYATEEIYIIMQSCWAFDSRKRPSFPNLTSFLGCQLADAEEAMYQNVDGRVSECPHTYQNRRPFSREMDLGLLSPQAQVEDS

[4] = molecular target: T2, Tyrosine-protein kinase JAK3 (Homo sapiens, UniProt P52333); assay: Inhibition of recombinant JAK3 using poly(Glu,Ala,Tyr) as substrate after 2 hrs by luminometric assay
T2 sequence (P52333 whole entry): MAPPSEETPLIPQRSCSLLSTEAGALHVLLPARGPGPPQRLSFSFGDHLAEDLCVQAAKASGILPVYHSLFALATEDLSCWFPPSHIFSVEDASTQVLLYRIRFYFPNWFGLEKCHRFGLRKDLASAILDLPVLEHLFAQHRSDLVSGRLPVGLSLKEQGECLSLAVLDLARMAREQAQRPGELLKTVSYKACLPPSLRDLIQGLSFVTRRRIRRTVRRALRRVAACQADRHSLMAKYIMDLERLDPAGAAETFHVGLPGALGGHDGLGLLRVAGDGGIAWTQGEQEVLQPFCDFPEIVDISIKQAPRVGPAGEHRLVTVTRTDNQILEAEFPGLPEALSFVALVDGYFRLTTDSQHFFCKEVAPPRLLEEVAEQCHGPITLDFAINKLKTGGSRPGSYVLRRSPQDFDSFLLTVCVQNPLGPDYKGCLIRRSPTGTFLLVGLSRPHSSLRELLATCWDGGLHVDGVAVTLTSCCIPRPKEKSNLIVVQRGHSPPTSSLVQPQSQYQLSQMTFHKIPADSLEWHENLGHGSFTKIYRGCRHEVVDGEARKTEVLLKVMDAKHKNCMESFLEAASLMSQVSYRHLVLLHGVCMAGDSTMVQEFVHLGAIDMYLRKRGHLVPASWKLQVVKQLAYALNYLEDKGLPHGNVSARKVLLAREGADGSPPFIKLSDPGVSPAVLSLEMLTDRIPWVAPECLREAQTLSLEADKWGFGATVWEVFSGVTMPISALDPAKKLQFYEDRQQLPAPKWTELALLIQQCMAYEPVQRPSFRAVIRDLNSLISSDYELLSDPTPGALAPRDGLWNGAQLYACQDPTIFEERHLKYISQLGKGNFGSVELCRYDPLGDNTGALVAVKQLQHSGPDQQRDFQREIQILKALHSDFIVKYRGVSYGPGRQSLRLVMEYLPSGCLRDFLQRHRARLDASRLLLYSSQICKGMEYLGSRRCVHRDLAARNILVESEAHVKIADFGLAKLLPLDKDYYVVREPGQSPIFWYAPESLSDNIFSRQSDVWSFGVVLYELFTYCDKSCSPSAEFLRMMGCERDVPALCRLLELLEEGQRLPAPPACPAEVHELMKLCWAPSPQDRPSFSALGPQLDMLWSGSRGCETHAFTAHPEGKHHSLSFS

[5] = molecular target: Tyrosine-protein kinase JAK1 (Homo sapiens, UniProt P23458); assay: Inhibition of recombinant JAK1 using poly(Glu,Ala,Tyr) as substrate after 2 hrs by luminometric assay
[6] = molecular target: Cyclin-dependent kinase 2 (Homo sapiens, UniProt P24941); assay: Inhibition of recombinant CDK2 using RbING as substrate after 2 hrs by luminometric assay
Cytochrome P450 2D6 = Cytochrome P450 2D6 (Homo sapiens, UniProt P10635); assay: Inhibition of CYP2D6 in human liver microsomes using dextromethorphan as substrate by LC-MS/MS analysis; type: ADME, Microsome
BaF3 = assay: Antiproliferative activity against mouse BAF3 cells expressing JAK2 V617F mutant after 48 hrs by luciferase reporter gene assay; type: functional; details: BaF3, 48 h
HL-60 = assay: Antiproliferative activity against human HL60 cells expressing FLT3 after 48 hrs by luciferase reporter gene assay; type: functional; details: HL-60, 48 h
[7] = Half life in mouse liver microsomes; type: ADME, Microsome
[8] = Kinetic solubility in PBS buffer at pH 7; type: physicochemical; details: read-out: Kinetic_solubility
Cytochrome P450 3A4 = Cytochrome P450 3A4 (Homo sapiens, UniProt P08684); assay: Inhibition of CYP3A4 in human liver microsomes using testosterone as substrate by LC-MS/MS analysis; type: ADME, Microsome
[9] = Half life in human liver microsomes; type: ADME, Microsome
[10] = molecular target: Voltage-gated inwardly rectifying potassium channel KCNH2 (Homo sapiens, UniProt Q12809); assay: Displacement of dofetilide from human ERG
[11] = Selectivity ratio of IC50 for recombinant JAK1 to IC50 for recombinant JAK2
[12] = Selectivity ratio of IC50 for recombinant CDK2 to IC50 for recombinant JAK2
[13] = Selectivity ratio of IC50 for recombinant JAK3 to IC50 for recombinant JAK2

Chain of Tyrosine-protein kinase JAK1 (P23458 whole entry): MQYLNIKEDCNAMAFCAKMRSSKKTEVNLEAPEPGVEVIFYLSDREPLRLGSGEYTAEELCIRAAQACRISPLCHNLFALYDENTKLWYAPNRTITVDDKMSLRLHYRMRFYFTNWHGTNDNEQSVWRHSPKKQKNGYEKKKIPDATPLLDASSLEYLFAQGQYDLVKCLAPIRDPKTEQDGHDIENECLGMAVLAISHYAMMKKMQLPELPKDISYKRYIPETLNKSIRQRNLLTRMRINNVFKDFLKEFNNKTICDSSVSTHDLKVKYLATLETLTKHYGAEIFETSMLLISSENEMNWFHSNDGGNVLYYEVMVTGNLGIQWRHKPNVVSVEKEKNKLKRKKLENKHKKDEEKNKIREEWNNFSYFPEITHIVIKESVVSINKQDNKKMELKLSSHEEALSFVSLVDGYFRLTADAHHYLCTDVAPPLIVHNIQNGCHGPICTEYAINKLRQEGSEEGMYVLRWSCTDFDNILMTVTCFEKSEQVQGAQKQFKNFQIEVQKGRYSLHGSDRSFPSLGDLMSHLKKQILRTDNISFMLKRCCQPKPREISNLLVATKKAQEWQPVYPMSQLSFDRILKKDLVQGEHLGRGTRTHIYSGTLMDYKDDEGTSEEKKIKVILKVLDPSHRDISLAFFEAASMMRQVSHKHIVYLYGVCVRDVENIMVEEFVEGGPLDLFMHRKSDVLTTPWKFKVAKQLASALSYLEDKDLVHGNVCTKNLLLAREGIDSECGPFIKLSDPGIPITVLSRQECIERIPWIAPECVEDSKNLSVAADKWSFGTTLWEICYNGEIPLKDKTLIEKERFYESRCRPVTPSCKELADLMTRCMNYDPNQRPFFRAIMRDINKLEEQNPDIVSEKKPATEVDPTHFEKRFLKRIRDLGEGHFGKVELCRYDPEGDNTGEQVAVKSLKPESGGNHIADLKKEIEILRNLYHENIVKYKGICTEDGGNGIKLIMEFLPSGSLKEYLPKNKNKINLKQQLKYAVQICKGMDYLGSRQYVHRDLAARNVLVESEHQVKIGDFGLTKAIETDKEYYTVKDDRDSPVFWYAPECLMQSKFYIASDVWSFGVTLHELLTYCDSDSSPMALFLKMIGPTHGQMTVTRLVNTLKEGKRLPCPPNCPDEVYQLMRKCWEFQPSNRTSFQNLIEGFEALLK
Chain of Non-receptor tyrosine-protein kinase TYK2 (P29597 whole entry): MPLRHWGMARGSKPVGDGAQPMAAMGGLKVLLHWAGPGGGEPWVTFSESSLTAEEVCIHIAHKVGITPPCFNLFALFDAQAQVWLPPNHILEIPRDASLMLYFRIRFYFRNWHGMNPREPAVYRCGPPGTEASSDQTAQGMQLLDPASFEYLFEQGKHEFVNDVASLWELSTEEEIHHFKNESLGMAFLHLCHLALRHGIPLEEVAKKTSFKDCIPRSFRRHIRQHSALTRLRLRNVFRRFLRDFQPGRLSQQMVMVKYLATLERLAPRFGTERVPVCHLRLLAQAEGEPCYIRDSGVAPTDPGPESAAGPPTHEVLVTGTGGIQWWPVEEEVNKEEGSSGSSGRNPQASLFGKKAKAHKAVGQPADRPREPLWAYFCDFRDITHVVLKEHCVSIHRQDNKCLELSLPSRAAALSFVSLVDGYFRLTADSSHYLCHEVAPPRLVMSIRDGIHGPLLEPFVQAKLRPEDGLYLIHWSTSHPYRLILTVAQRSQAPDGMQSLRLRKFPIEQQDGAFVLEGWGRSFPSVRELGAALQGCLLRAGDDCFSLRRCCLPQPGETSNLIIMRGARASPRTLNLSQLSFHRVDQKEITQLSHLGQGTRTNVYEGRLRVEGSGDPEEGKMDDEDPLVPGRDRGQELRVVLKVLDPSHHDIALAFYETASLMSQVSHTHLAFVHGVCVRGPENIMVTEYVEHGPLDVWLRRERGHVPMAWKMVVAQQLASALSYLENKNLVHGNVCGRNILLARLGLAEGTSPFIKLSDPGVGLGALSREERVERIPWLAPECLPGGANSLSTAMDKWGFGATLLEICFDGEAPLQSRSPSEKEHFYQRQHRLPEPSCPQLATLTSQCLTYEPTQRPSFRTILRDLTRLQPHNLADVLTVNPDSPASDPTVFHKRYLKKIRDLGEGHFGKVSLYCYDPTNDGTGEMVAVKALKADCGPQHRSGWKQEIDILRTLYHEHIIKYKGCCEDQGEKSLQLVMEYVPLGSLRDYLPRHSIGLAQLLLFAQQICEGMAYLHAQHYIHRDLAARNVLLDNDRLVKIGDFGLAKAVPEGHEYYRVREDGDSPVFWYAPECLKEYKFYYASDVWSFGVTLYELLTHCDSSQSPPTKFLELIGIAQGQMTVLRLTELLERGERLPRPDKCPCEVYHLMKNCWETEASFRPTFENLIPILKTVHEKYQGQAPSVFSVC
Chain of Tyrosine-protein kinase JAK2 (O60674 whole entry): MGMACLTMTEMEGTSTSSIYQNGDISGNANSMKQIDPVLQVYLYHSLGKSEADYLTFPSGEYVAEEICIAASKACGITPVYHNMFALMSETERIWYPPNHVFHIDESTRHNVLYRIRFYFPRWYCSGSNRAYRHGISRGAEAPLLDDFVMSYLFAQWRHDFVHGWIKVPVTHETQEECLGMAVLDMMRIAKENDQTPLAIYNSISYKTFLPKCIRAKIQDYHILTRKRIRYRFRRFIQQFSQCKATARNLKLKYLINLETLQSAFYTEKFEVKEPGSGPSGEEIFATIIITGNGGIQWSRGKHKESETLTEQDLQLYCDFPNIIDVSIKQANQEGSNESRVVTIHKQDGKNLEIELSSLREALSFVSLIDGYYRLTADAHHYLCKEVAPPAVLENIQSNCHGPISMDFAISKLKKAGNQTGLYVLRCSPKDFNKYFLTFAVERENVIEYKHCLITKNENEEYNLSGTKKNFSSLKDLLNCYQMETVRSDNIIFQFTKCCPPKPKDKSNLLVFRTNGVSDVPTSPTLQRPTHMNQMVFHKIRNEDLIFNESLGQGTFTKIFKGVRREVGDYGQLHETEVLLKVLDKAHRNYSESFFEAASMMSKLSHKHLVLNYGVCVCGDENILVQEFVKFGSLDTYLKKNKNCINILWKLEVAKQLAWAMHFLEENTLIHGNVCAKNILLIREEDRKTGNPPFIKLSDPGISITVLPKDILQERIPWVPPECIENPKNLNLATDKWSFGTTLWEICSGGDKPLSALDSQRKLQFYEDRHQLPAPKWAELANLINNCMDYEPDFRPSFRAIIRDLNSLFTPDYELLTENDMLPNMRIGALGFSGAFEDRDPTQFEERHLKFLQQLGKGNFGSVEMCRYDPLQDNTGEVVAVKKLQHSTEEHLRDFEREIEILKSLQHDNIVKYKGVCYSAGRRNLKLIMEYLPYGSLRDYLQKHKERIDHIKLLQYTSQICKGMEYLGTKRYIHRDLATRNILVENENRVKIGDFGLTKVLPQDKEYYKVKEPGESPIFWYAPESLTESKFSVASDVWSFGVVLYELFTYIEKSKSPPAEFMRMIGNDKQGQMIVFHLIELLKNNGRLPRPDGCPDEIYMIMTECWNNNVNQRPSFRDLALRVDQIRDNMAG
Chain of Cytochrome P450 2D6 (P10635 whole entry): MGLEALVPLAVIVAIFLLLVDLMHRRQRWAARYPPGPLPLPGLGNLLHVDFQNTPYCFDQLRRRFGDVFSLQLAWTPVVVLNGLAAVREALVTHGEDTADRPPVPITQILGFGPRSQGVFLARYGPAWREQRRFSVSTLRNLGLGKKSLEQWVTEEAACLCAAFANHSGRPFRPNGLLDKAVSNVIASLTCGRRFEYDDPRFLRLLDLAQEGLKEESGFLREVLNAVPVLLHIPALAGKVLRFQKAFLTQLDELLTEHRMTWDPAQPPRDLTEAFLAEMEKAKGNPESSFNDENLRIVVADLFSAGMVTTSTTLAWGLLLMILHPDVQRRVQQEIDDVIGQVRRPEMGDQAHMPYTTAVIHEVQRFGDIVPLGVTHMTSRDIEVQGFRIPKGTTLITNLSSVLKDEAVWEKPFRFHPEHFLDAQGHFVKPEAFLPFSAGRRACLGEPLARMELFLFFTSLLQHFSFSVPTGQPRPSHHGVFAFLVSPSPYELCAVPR
Chain of Cytochrome P450 3A4 (P08684 whole entry): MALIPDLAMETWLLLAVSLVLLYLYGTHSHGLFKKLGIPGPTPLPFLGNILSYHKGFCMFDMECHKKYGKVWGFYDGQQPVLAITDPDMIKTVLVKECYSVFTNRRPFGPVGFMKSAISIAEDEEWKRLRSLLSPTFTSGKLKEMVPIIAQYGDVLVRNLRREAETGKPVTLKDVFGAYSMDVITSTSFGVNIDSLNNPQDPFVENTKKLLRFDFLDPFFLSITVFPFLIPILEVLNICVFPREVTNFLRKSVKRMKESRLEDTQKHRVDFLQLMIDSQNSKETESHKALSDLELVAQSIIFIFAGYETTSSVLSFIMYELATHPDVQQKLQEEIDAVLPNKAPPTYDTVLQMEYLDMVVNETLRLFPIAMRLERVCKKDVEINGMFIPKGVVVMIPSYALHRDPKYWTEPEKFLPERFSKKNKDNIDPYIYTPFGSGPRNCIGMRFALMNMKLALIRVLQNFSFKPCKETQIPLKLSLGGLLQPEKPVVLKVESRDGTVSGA

Row | Compound | pIC50 [1] | pIC50 [2] | pIC50 [3] | pIC50 [4] | pIC50 [5] | pIC50 [6] | pIC50 (Cytochrome P450 2D6) | GI50 (BaF3) [µM] | GI50 (HL-60) [µM] | half-life [7] [min] | solubility kinetic [8] [µg/mL] | pIC50 (Cytochrome P450 3A4) | half-life [9] [min] | pIC50 [10] | Ratio IC50 [11] | Ratio IC50 [12] | Ratio IC50 [13]
1 | C1=C/COCc2cc(ccc2OCCN2CCCC2)Nc2nccc(n2)-c2cncc(c2)COC/1 (mixture of isomers) | 6.54 | 6.20 | 7.20 | 6.00 | < 5.00 | 5.49 |  |  |  |  |  |  |  |  |  |  | 
2 | C1=C/COCc2cc(ccc2OCCN2CCCC2)Nc2nccc(n2)-c2ccnc(c2)OCC/1 (mixture of isomers) | 7.74 | 7.52 | 7.51 | 5.85 | 6.01 | 6.57 |  |  |  |  |  |  |  |  |  |  | 
3 | CN1C/C=C/COCC2=CC=C(O2)c2ccnc(n2)Nc2ccc(OCCN3CCCC3)c(c2)C1 (mixture of isomers) |  | 6.15 | 6.92 | < 5.00 | 6.19 | 5.80 |  |  |  |  |  |  |  |  |  |  | 
4 | CN1C/C=C/COCC2=CC=C(S2)c2ccnc(n2)Nc2ccc(OCCN3CCCC3)c(c2)C1 (mixture of isomers) | 7.05 | 7.39 | 7.92 | < 5.00 | 6.70 | 6.15 |  |  |  |  |  |  |  |  |  |  | 
5 | COCCOc1ccc2cc1CN(C)C/C=C/COCC1=CC=C(O1)c1ccnc(n1)N2 (mixture of isomers) | 5.96 | 6.23 | 5.92 | < 5.00 | 5.49 | 5.07 |  |  |  |  |  |  |  |  |  |  | 
6 | C1=C/COCc2cc(ccc2OCCN2CCCC2)Nc2nccc(n2)-c2cc(co2)COC/1 (mixture of isomers) | 6.96 | 6.51 | 6.74 | 5.04 | 5.72 | < 5.00 |  |  |  |  |  |  |  |  |  |  | 
7 | COCCOc1ccc2cc1CN(C)C/C=C/COCC1=CC=C(S1)c1ccnc(n1)N2 (mixture of isomers) | 6.77 | 7.48 | 7.66 | < 5.00 | 6.41 | 6.48 |  |  |  |  |  |  |  |  |  |  | 
8 | C1=C2COC/C=C/COCc3cc(ccc3OCCN3CCCC3)Nc3nccc(n3)C(=C1)S2 (mixture of isomers) | 8.14 | 7.49 | 7.62 | 6.19 | 6.38 | 5.54 | < 5.00 | 0.055 | 0.2 | 27 | 154 | < 5.00 | > 60 | 5.14 |  |  | 
9 | C1=C/COCc2cc(ccc2OCCN2CCCC2)Nc2nccc(n2)-c2csc(c2)COC/1 (mixture of isomers) | 7.77 | 7.33 | 7.35 | 6.17 | 5.82 | 5.17 |  | 0.08 | 0.64 | 25 | 218 |  | > 60 |  | 88 | 400 | 40
10 | C1=C/COCc2cc(ccc2OCCN2CCCC2)Nc2nccc(n2)-c2coc(c2)COC/1 (mixture of isomers) | 7.17 | 6.92 | 7.32 | 5.06 | 5.52 | < 5.00 | < 5.00 |  | 0.71 | 18 | > 250 | < 5.00 | > 60 |  | 45 | > 149 | 131
11 | C1=C/COCc2cc(ccc2OCCN2CCCC2)Nc2nccc(n2)-c2ccc(s2)COC/1 (mixture of isomers) |  |  |  |  |  |  |  |  |  |  |  |  |  |  | 57 | 397 | 89
